Data published in paper PMC2915626, “Isolation and Characterization of a Defensin-Like Peptide (Coprisin) from the Dung Beetle, Copris tripartitus” (International Journal of Peptides, 2009).
Ends that are not written are not given here.

Tests used:
E. coli = test: Broth microdilution assay (MIC); type: cell-based, Escherichia coli
Procedure: (§1) In addition to a radial diffusion assay, antibacterial activities of the peptides were also tested by a broth microdilution assay against E. coli and S. aureus. Briefly, bacteria were grown overnight in TSB to the onset of stationary phase at 37°C with shaking at 200 rpm. The cultures were diluted in a fresh TSB to the final concentration of 2 × 10^4 CFU/mL. A stock solution of each peptide was prepared in 0.01% acetic acid at 640 μg/mL. The peptide solution was then serially diluted in 0.01% acetic acid to 2 μg/mL. After 90 μL aliquots of the bacterial suspension were dispensed into each well of a 96-well polypropylene microtiter plate, 10 μL of peptide solution was added. The antibacterial activities of peptides were assessed by measuring visible turbidity in each well of the plate after 18 hours of incubation at 37°C. MIC was expressed as intervals (a to b), where a was the highest concentration tested at which bacteria were still growing and b was the lowest concentration that caused complete growth inhibition.

S. aureus = test: Broth microdilution assay (MIC); type: cell-based, Staphylococcus aureus
Procedure: as §1

[1] = broth microdilution in TSB, 2 × 10^4 CFU/mL, 18 hours at 37°C, visible turbidity, MIC as interval a to b (a highest conc. with growth, b lowest conc. with complete inhibition)

## LHCIALRKK-NH2 [CopN5(22–30)]
E. coli; [1]
  MIC (μg/mL) E. coli: 8 to 16 µg/mL
S. aureus; [1]
  MIC (μg/mL) S. aureus: >64 µg/mL

## LHLIALRKK-NH2 [CopA1]
E. coli; 18 h
  MIC (μg/mL) E. coli: >64 µg/mL
S. aureus; 18 h
  MIC (μg/mL) S. aureus: >64 µg/mL

## LHRIALRKK-NH2 [CopA2]
E. coli; 18 h
  MIC (μg/mL) E. coli: >64 µg/mL
S. aureus; 18 h
  MIC (μg/mL) S. aureus: >64 µg/mL

## LLCIALRKK-NH2 [CopA3]
E. coli; 18 h
  MIC (μg/mL) E. coli: 4 to 8 µg/mL
E. coli; statement of the abstract
  antibacterial activity against Escherichia coli (in words): potent antibacterial activities
S. aureus; 18 h
  MIC (μg/mL) S. aureus: 4 to 8 µg/mL
S. aureus; statement of the abstract
  antibacterial activity against Staphylococcus aureus (in words): potent antibacterial activities

## LRCIALRKK-NH2 [CopA4]
E. coli; 18 h
  MIC (μg/mL) E. coli: 16 to 32 µg/mL
S. aureus; 18 h
  MIC (μg/mL) S. aureus: >64 µg/mL
